From the supplement of paper PMC10307832

What was measured:
Test in all cases: relative viability (nuclei count vs DMSO), 5 days (fraction); higher = more cells survive
COR-L23 = test system: COR-L23
Method in brief: (§1)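 Values are medians from duplicate plates. Each reflects relative viability, defined as the nuclei count of treated wells over that of vehicle wells. Lung cancer cell lines in 1536-well plates were pin-tool dosed one day after seeding with one drug alone or with a fixed anchor-drug dose plus five library-drug doses (not always all listed) in √10 steps, then fixed, stained and imaged at 4× after 5 days.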

ChaGo-K-1 = test system: ChaGo-K-1
Method in brief: as §1

EPLC-272H = test system: EPLC-272H
Method in brief: as §1

HCC-15 = test system: HCC-15
Method in brief: as §1

HCC-366 = test system: HCC-366
Method in brief: as §1

HCC-44 = test system: HCC-44
Method in brief: as §1

HCC-827 = test system: HCC-827
Method in brief: as §1

LCLC-103H = test system: LCLC-103H
Method in brief: as §1

NCI-H1355 = test system: NCI-H1355
Method in brief: as §1

NCI-H1734 = test system: NCI-H1734
Method in brief: as §1

NCI-H1793 = test system: NCI-H1793
Method in brief: as §1

NCI-H1944 = test system: NCI-H1944
Method in brief: as §1

NCI-H2009 = test system: NCI-H2009
Method in brief: as §1

NCI-H2023 = test system: NCI-H2023
Method in brief: as §1

NCI-H2085 = test system: NCI-H2085
Method in brief: as §1

NCI-H2228 = test system: NCI-H2228
Method in brief: as §1

NCI-H2347 = test system: NCI-H2347
Method in brief: as §1

NCI-H2405 = test system: NCI-H2405
Method in brief: as §1

NCI-H3122 = test system: NCI-H3122
Method in brief: as §1

PC-14 = test system: PC-14
Method in brief: as §1

SW 1573 = test system: SW 1573
Method in brief: as §1

In the case of `Cc1csc(=NC2CCCCC2)n1/N=C/c1ccc(O)c(O)c1O` [MIM1] + Nc1nc2[nH]cc(CCc3ccc(C(=O)N[C@@H](CCC(=O)O)C(=O)O)cc3)c2c(=O)[nH]1 [Pemetrexed] (partner 0.2 µM), the relative viability (COR-L23; first compound 0.2 µM) is reported as 0.208, the relative viability (COR-L23; first compound 0.6325 µM) is reported as 0.194 and the relative viability (COR-L23; first compound 2 µM) is reported as 0.191. It also gave a relative viability (COR-L23; first compound 6.325 µM) of 0.19, a relative viability (COR-L23; first compound 20 µM) of 0.198 and a relative viability (ChaGo-K-1; first compound 0.2 µM) of 0.255. It also gave a relative viability (ChaGo-K-1; first compound 0.6325 µM) of 0.269, a relative viability (ChaGo-K-1; first compound 2 µM) of 0.263 and a relative viability (ChaGo-K-1; first compound 6.325 µM) of 0.257. For the same compound, the relative viability (ChaGo-K-1; first compound 20 µM) was 0.189, the relative viability (EPLC-272H; first compound 0.2 µM) was 0.328 and the relative viability (EPLC-272H; first compound 0.6325 µM) was 0.372. It also gave a relative viability (EPLC-272H; first compound 2 µM) of 0.27, a relative viability (EPLC-272H; first compound 6.325 µM) of 0.157 and a relative viability (EPLC-272H; first compound 20 µM) of 0.166. It also gave a relative viability (HCC-15; first compound 0.2 µM) of 0.217, a relative viability (HCC-15; first compound 0.6325 µM) of 0.225 and a relative viability (HCC-15; first compound 2 µM) of 0.225. For the same compound, the relative viability (HCC-15; first compound 6.325 µM) was 0.239, the relative viability (HCC-15; first compound 20 µM) was 0.162 and the relative viability (HCC-366; first compound 0.2 µM) was 0.161. The relative viability (HCC-366; first compound 2 µM) was 0.176, the relative viability (HCC-366; first compound 6.325 µM) was 0.152 and the relative viability (HCC-366; first compound 20 µM) was 0.0413. For the same compound, the relative viability (HCC-44; first compound 0.2 µM) was 0.689, the relative viability (HCC-44; first compound 0.6325 µM) was 0.566 and the relative viability (HCC-44; first compound 2 µM) was 0.601. For the same compound, the relative viability (HCC-44; first compound 6.325 µM) was 0.468, the relative viability (HCC-44; first compound 20 µM) was 0.401 and the relative viability (HCC-827; first compound 0.2 µM) was 0.275. For the same compound, the relative viability (HCC-827; first compound 0.6325 µM) was 0.249, the relative viability (HCC-827; first compound 2 µM) was 0.263 and the relative viability (HCC-827; first compound 6.325 µM) was 0.246. For the same compound, the relative viability (HCC-827; first compound 20 µM) was 0.167, the relative viability (LCLC-103H; first compound 0.2 µM) was 0.413 and the relative viability (LCLC-103H; first compound 0.6325 µM) was 0.499. The relative viability (LCLC-103H; first compound 2 µM) was 0.456, the relative viability (LCLC-103H; first compound 6.325 µM) was 0.466 and the relative viability (LCLC-103H; first compound 20 µM) was 0.393. The relative viability (NCI-H1355; first compound 0.2 µM) was 1.05, the relative viability (NCI-H1355; first compound 0.6325 µM) was 0.932 and the relative viability (NCI-H1355; first compound 2 µM) was 1.07. For the same compound, the relative viability (NCI-H1355; first compound 6.325 µM) was 0.863, the relative viability (NCI-H1355; first compound 20 µM) was 0.616 and the relative viability (NCI-H1734; first compound 0.2 µM) was 0.424. The relative viability (NCI-H1734; first compound 0.6325 µM) was 0.448, the relative viability (NCI-H1734; first compound 2 µM) was 0.478 and the relative viability (NCI-H1734; first compound 6.325 µM) was 0.412. For the same compound, the relative viability (NCI-H1734; first compound 20 µM) was 0.179, the relative viability (NCI-H1793; first compound 0.2 µM) was 0.937 and the relative viability (NCI-H1793; first compound 2 µM) was 1.13. For the same compound, the relative viability (NCI-H1793; first compound 6.325 µM) was 0.848, the relative viability (NCI-H1793; first compound 20 µM) was 0.936 and the relative viability (NCI-H1944; first compound 0.2 µM) was 0.586. The relative viability (NCI-H1944; first compound 0.6325 µM) was 0.613, the relative viability (NCI-H1944; first compound 2 µM) was 0.478 and the relative viability (NCI-H1944; first compound 6.325 µM) was 0.381. It also gave a relative viability (NCI-H1944; first compound 20 µM) of 0.233, a relative viability (NCI-H2009; first compound 0.2 µM) of 1.03 and a relative viability (NCI-H2009; first compound 0.6325 µM) of 1.05. It also gave a relative viability (NCI-H2009; first compound 2 µM) of 1.09, a relative viability (NCI-H2009; first compound 6.325 µM) of 0.916 and a relative viability (NCI-H2009; first compound 20 µM) of 0.884. The relative viability (NCI-H2023; first compound 0.2 µM) was 0.235, the relative viability (NCI-H2023; first compound 0.6325 µM) was 0.337 and the relative viability (NCI-H2023; first compound 2 µM) was 0.219. The relative viability (NCI-H2023; first compound 6.325 µM) was 0.098, the relative viability (NCI-H2023; first compound 20 µM) was 0.0763 and the relative viability (NCI-H2085; first compound 0.2 µM) was 0.903. It also gave a relative viability (NCI-H2085; first compound 0.6325 µM) of 0.873, a relative viability (NCI-H2085; first compound 2 µM) of 0.885 and a relative viability (NCI-H2085; first compound 6.325 µM) of 0.777. For the same compound, the relative viability (NCI-H2085; first compound 20 µM) was 0.833, the relative viability (NCI-H2228; first compound 0.2 µM) was 0.386 and the relative viability (NCI-H2228; first compound 0.6325 µM) was 0.345. It also gave a relative viability (NCI-H2228; first compound 2 µM) of 0.347, a relative viability (NCI-H2228; first compound 6.325 µM) of 0.168 and a relative viability (NCI-H2228; first compound 20 µM) of 0.152. It also gave a relative viability (NCI-H2347; first compound 0.2 µM) of 0.465, a relative viability (NCI-H2347; first compound 0.6325 µM) of 0.422 and a relative viability (NCI-H2347; first compound 2 µM) of 0.415. For the same compound, the relative viability (NCI-H2347; first compound 6.325 µM) was 0.421, the relative viability (NCI-H2347; first compound 20 µM) was 0.399 and the relative viability (NCI-H2405; first compound 0.2 µM) was 0.945. It also gave a relative viability (NCI-H2405; first compound 0.6325 µM) of 0.98, a relative viability (NCI-H2405; first compound 2 µM) of 1.17 and a relative viability (NCI-H2405; first compound 6.325 µM) of 0.752. The relative viability (NCI-H2405; first compound 20 µM) was 0.584, the relative viability (NCI-H3122; first compound 0.2 µM) was 0.195 and the relative viability (NCI-H3122; first compound 0.6325 µM) was 0.194. The relative viability (NCI-H3122; first compound 2 µM) was 0.219, the relative viability (NCI-H3122; first compound 6.325 µM) was 0.148 and the relative viability (NCI-H3122; first compound 20 µM) was 0.245. It also gave a relative viability (PC-14; first compound 0.2 µM) of 0.137, a relative viability (PC-14; first compound 0.6325 µM) of 0.124 and a relative viability (PC-14; first compound 2 µM) of 0.151. The relative viability (PC-14; first compound 6.325 µM) was 0.156, the relative viability (PC-14; first compound 20 µM) was 0.111 and the relative viability (SW 1573; first compound 0.2 µM) was 0.851. For the same compound, the relative viability (SW 1573; first compound 0.6325 µM) was 0.93, the relative viability (SW 1573; first compound 2 µM) was 0.877 and the relative viability (SW 1573; first compound 6.325 µM) was 0.791. For the same compound, the relative viability (SW 1573; first compound 20 µM) was 0.18.
